# Test results published in patent US6613718B2, “Aryl ether derivatives and processes for their preparation and herbicidal and desiccant compositions containing them” (Ishihara Sangyo Kaisha, Ltd., priority 2001, dated 2003).
# Assays:
# Format in all cases: in vivo
# Conditions in all cases: 14 days after application
# [1] = system: lambsquarters (Chenopodium album, CHEAL); assay: Pre-emerge greenhouse herbicide activity screening, phytotoxicity rating
# How it was run: (§1)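 Rates of 15 to 1000 g ai/ha were applied by mechanized flat-fan spray. Phytotoxicity was then judged visually at 14 days using a 0-100 scale.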
# [2] = system: redroot pigweed (Amaranthus retroflexus, AMARE); assay: as above
# How it was run: as §1
# [3] = system: sicklepod (Cassia obtusifolia, CASOB); assay: as above
# How it was run: as §1
# [4] = system: barnyardgrass (Echinochloa crus-galli, ECHCG); assay: as above
# How it was run: as §1
# [5] = system: common ragweed (Ambrosia artemisiifolia L., AMBEL); assay: as above
# How it was run: as §1
# [6] = system: johnsongrass (Sorghum halepense, SORHA); assay: as above
# How it was run: as §1
# [7] = system: green foxtail (Setaria viridis, SETVI); assay: as above
# How it was run: as §1
# [8] = system: velvetleaf (Abutilon theophrasti, ABUTH); assay: as above
# How it was run: as §1
# [9] = system: ivyleaf morningglory (Ipomoea hederacea, IPOHE); assay: as above
# How it was run: as §1
# [10] = system: large crabgrass (Digitaria sanguinalis, DIGSA); assay: as above
# How it was run: as §1
# [11] = system: field corn (Zea mays L., var. Dekalb 535, CORN); assay: Pre-emerge greenhouse screening, crop safety (phytotoxicity rating)
# How it was run: as §1
# [12] = system: soybean (Glycine max L., var. Pella 86, SOY); assay: as above
# How it was run: as §1
# [13] = system: upland rice (Oryza sp., var.Tebonnet, RICE); assay: as above
# How it was run: as §1
# [14] = system: field corn (Zea mays L., var. Dekalb 535, CORN); assay: Post-emerge greenhouse screening, crop safety / corn selectivity (phytotoxicity rating)
# How it was run: as §1
# [15] = system: lambsquarters (Chenopodium album, CHEAL); assay: Post-emerge greenhouse herbicide activity screening, phytotoxicity rating
# How it was run: as §1
# [16] = system: redroot pigweed (Amaranthus retroflexus, AMARE); assay: as above
# How it was run: as §1
# [17] = system: sicklepod (Cassia obtusifolia, CASOB); assay: as above
# How it was run: as §1
# [18] = system: barnyardgrass (Echinochloa crus-galli, ECHCG); assay: as above
# How it was run: as §1
# [19] = system: common ragweed (Ambrosia artemisiifolia L., AMBEL); assay: as above
# How it was run: as §1
# [20] = system: johnsongrass (Sorghum halepense, SORHA); assay: as above
# How it was run: as §1
# [21] = system: green foxtail (Setaria viridis, SETVI); assay: as above
# How it was run: as §1
# [22] = system: velvetleaf (Abutilon theophrasti, ABUTH); assay: as above
# How it was run: as §1
# [23] = system: ivyleaf morningglory (Ipomoea hederacea, IPOHE); assay: as above
# How it was run: as §1
# [24] = system: large crabgrass (Digitaria sanguinalis, DIGSA); assay: as above
# How it was run: as §1
# [25] = system: soybean (Glycine max L., var. Pella 86, SOY); assay: Post-emerge greenhouse screening, crop safety (phytotoxicity rating)
# How it was run: as §1
# [26] = system: upland rice (Oryza sp., var.Tebonnet, RICE); assay: as above
# How it was run: as §1
smiles,measurement,setting,value
Cn1c(C(F)(F)F)cc(=O)n(-c2cc(Oc3ccccc3O)c(C#N)cc2F)c1=S [Compound 1-70],CHEAL phytotoxicity rating (0-100 scale),[1]; 125 g ai/ha,100
same,CHEAL phytotoxicity rating (0-100 scale),[1]; 250 g ai/ha,100
same,AMARE phytotoxicity rating (0-100 scale),[2]; 125 g ai/ha,100
same,AMARE phytotoxicity rating (0-100 scale),[2]; 250 g ai/ha,100
same,CASOB phytotoxicity rating (0-100 scale),[3]; 125 g ai/ha,65
same,CASOB phytotoxicity rating (0-100 scale),[3]; 250 g ai/ha,85
same,ECHCG phytotoxicity rating (0-100 scale),[4]; 125 g ai/ha,85
same,ECHCG phytotoxicity rating (0-100 scale),[4]; 250 g ai/ha,95
same,AMBEL phytotoxicity rating (0-100 scale),[5]; 125 g ai/ha,90
same,AMBEL phytotoxicity rating (0-100 scale),[5]; 250 g ai/ha,99
same,SORHA phytotoxicity rating (0-100 scale),[6]; 125 g ai/ha,65
same,SORHA phytotoxicity rating (0-100 scale),[6]; 250 g ai/ha,99
same,SETVI phytotoxicity rating (0-100 scale),[7]; 125 g ai/ha,75
same,SETVI phytotoxicity rating (0-100 scale),[7]; 250 g ai/ha,100
same,ABUTH phytotoxicity rating (0-100 scale),[8]; 125 g ai/ha,100
same,ABUTH phytotoxicity rating (0-100 scale),[8]; 250 g ai/ha,100
same,IPOHE phytotoxicity rating (0-100 scale),[9]; 125 g ai/ha,99
same,IPOHE phytotoxicity rating (0-100 scale),[9]; 250 g ai/ha,99
same,DIGSA phytotoxicity rating (0-100 scale),[10]; 125 g ai/ha,85
same,DIGSA phytotoxicity rating (0-100 scale),[10]; 250 g ai/ha,99
same,"CORN crop damage, phytotoxicity rating (0-100 scale)",[11]; 125 g ai/ha,15
same,"CORN crop damage, phytotoxicity rating (0-100 scale)",[11]; 250 g ai/ha,15
same,"SOY crop damage, phytotoxicity rating (0-100 scale)",[12]; 125 g ai/ha,30
same,"SOY crop damage, phytotoxicity rating (0-100 scale)",[12]; 250 g ai/ha,80
same,"RICE crop damage, phytotoxicity rating (0-100 scale)",[13]; 125 g ai/ha,50
same,"RICE crop damage, phytotoxicity rating (0-100 scale)",[13]; 250 g ai/ha,55
same,"CORN crop damage, phytotoxicity rating (0-100 scale)",[14]; 125 g ai/ha,0
same,"CORN crop damage, phytotoxicity rating (0-100 scale)",[14]; 250 g ai/ha,0
same,CHEAL phytotoxicity rating (0-100 scale),[15]; 125 g ai/ha,100
same,CHEAL phytotoxicity rating (0-100 scale),[15]; 250 g ai/ha,100
same,AMARE phytotoxicity rating (0-100 scale),[16]; 125 g ai/ha,100
same,AMARE phytotoxicity rating (0-100 scale),[16]; 250 g ai/ha,100
same,CASOB phytotoxicity rating (0-100 scale),[17]; 125 g ai/ha,65
same,CASOB phytotoxicity rating (0-100 scale),[17]; 250 g ai/ha,65
same,ECHCG phytotoxicity rating (0-100 scale),[18]; 125 g ai/ha,55
same,ECHCG phytotoxicity rating (0-100 scale),[18]; 250 g ai/ha,80
same,AMBEL phytotoxicity rating (0-100 scale),[19]; 125 g ai/ha,60
same,AMBEL phytotoxicity rating (0-100 scale),[19]; 250 g ai/ha,65
same,SORHA phytotoxicity rating (0-100 scale),[20]; 125 g ai/ha,0
same,SORHA phytotoxicity rating (0-100 scale),[20]; 250 g ai/ha,25
same,SETVI phytotoxicity rating (0-100 scale),[21]; 125 g ai/ha,65
same,SETVI phytotoxicity rating (0-100 scale),[21]; 250 g ai/ha,75
same,ABUTH phytotoxicity rating (0-100 scale),[22]; 125 g ai/ha,100
same,ABUTH phytotoxicity rating (0-100 scale),[22]; 250 g ai/ha,100
same,IPOHE phytotoxicity rating (0-100 scale),[23]; 125 g ai/ha,99
same,IPOHE phytotoxicity rating (0-100 scale),[23]; 250 g ai/ha,99
same,DIGSA phytotoxicity rating (0-100 scale),[24]; 125 g ai/ha,15
same,DIGSA phytotoxicity rating (0-100 scale),[24]; 250 g ai/ha,30
same,"SOY crop damage, phytotoxicity rating (0-100 scale)",[25]; 125 g ai/ha,30
same,"SOY crop damage, phytotoxicity rating (0-100 scale)",[25]; 250 g ai/ha,65
same,"RICE crop damage, phytotoxicity rating (0-100 scale)",[26]; 125 g ai/ha,0
same,"RICE crop damage, phytotoxicity rating (0-100 scale)",[26]; 250 g ai/ha,0
COc1ccccc1Oc1cc(-n2c(=O)cc(C(F)(F)F)n(C)c2=S)c(F)cc1C#N [Compound 1-71],CHEAL phytotoxicity rating (0-100 scale),[1]; 125 g ai/ha,100
same,CHEAL phytotoxicity rating (0-100 scale),[1]; 250 g ai/ha,100
same,AMARE phytotoxicity rating (0-100 scale),[2]; 125 g ai/ha,100
same,AMARE phytotoxicity rating (0-100 scale),[2]; 250 g ai/ha,100
same,CASOB phytotoxicity rating (0-100 scale),[3]; 125 g ai/ha,95
same,CASOB phytotoxicity rating (0-100 scale),[3]; 250 g ai/ha,100
same,ECHCG phytotoxicity rating (0-100 scale),[4]; 125 g ai/ha,100
same,ECHCG phytotoxicity rating (0-100 scale),[4]; 250 g ai/ha,100
same,AMBEL phytotoxicity rating (0-100 scale),[5]; 125 g ai/ha,100
same,AMBEL phytotoxicity rating (0-100 scale),[5]; 250 g ai/ha,100
same,SORHA phytotoxicity rating (0-100 scale),[6]; 125 g ai/ha,99
same,SORHA phytotoxicity rating (0-100 scale),[6]; 250 g ai/ha,100
same,SETVI phytotoxicity rating (0-100 scale),[7]; 125 g ai/ha,100
same,SETVI phytotoxicity rating (0-100 scale),[7]; 250 g ai/ha,100
same,ABUTH phytotoxicity rating (0-100 scale),[8]; 125 g ai/ha,100
same,ABUTH phytotoxicity rating (0-100 scale),[8]; 250 g ai/ha,100
same,IPOHE phytotoxicity rating (0-100 scale),[9]; 125 g ai/ha,100
same,IPOHE phytotoxicity rating (0-100 scale),[9]; 250 g ai/ha,100
same,DIGSA phytotoxicity rating (0-100 scale),[10]; 125 g ai/ha,100
same,DIGSA phytotoxicity rating (0-100 scale),[10]; 250 g ai/ha,100
same,"CORN crop damage, phytotoxicity rating (0-100 scale)",[11]; 125 g ai/ha,0
same,"CORN crop damage, phytotoxicity rating (0-100 scale)",[11]; 250 g ai/ha,5
same,"SOY crop damage, phytotoxicity rating (0-100 scale)",[12]; 125 g ai/ha,45
same,"SOY crop damage, phytotoxicity rating (0-100 scale)",[12]; 250 g ai/ha,60
same,"RICE crop damage, phytotoxicity rating (0-100 scale)",[13]; 125 g ai/ha,50
same,"RICE crop damage, phytotoxicity rating (0-100 scale)",[13]; 250 g ai/ha,65
same,"CORN crop damage, phytotoxicity rating (0-100 scale)",[14]; 125 g ai/ha,0
same,"CORN crop damage, phytotoxicity rating (0-100 scale)",[14]; 250 g ai/ha,0
same,CHEAL phytotoxicity rating (0-100 scale),[15]; 125 g ai/ha,100
same,CHEAL phytotoxicity rating (0-100 scale),[15]; 250 g ai/ha,100
same,AMARE phytotoxicity rating (0-100 scale),[16]; 125 g ai/ha,100
same,AMARE phytotoxicity rating (0-100 scale),[16]; 250 g ai/ha,100
same,CASOB phytotoxicity rating (0-100 scale),[17]; 125 g ai/ha,50
same,CASOB phytotoxicity rating (0-100 scale),[17]; 250 g ai/ha,50
same,ECHCG phytotoxicity rating (0-100 scale),[18]; 125 g ai/ha,35
same,ECHCG phytotoxicity rating (0-100 scale),[18]; 250 g ai/ha,65
same,AMBEL phytotoxicity rating (0-100 scale),[19]; 125 g ai/ha,80
same,AMBEL phytotoxicity rating (0-100 scale),[19]; 250 g ai/ha,90
same,SORHA phytotoxicity rating (0-100 scale),[20]; 125 g ai/ha,0
same,SORHA phytotoxicity rating (0-100 scale),[20]; 250 g ai/ha,15
same,SETVI phytotoxicity rating (0-100 scale),[21]; 125 g ai/ha,85
same,SETVI phytotoxicity rating (0-100 scale),[21]; 250 g ai/ha,85
same,ABUTH phytotoxicity rating (0-100 scale),[22]; 125 g ai/ha,100
same,ABUTH phytotoxicity rating (0-100 scale),[22]; 250 g ai/ha,100
same,IPOHE phytotoxicity rating (0-100 scale),[23]; 125 g ai/ha,100
same,IPOHE phytotoxicity rating (0-100 scale),[23]; 250 g ai/ha,100
same,DIGSA phytotoxicity rating (0-100 scale),[24]; 125 g ai/ha,50
same,DIGSA phytotoxicity rating (0-100 scale),[24]; 250 g ai/ha,60
same,"SOY crop damage, phytotoxicity rating (0-100 scale)",[25]; 125 g ai/ha,50
same,"SOY crop damage, phytotoxicity rating (0-100 scale)",[25]; 250 g ai/ha,75
same,"RICE crop damage, phytotoxicity rating (0-100 scale)",[26]; 125 g ai/ha,0
same,"RICE crop damage, phytotoxicity rating (0-100 scale)",[26]; 250 g ai/ha,0
